{"source": "patent US11090292B2", "about": "“Compositions and methods of use of an inappetance-controlling compound” (Aratana Therapeutics, Inc., priority 2012, dated 2021)", "key": {"IGF-1": {"system": "IGF-1", "assay": "Example 13: serum IGF-1", "assay_type": "in vivo, cats with compromised kidney function", "details": "8 hours post administration; Group 1 IV Day 0, Group 2 SC Days 0 and 13", "procedure": "The following study was undertaken to assess multiple points. First, the following experiments were conducted to determine if a formulation of capromorelin, when administered either intravenously or subcutaneously, can stimulate appetite in cats with compromised kidney function. Second, the following experiments were conducted to assess the pharmacokinetic profile of capromorelin in the serum of cats with compromised kidney function. Finally, the following experiments were conducted to determine if capromorelin accumulates in the serum after 14 days of treatment that is subcutaneously administered.\nSixteen cats with compromised kidney function were acclimatized for the following study. Animals assigned to Group 1 (n=6) received an intravenous administration of a capromorelin formulation (i.e., capromorelin in sterile water) at a dose of 0.75 mg/kg on Day 0 of the experiment. Animals assigned to Group 2 (n=6) received a subcutaneous administration of a capromorelin formulation (2.1% w/v capromorelin, 1% w/v benzyl alcohol, and citrate buffer) daily for 14 days at a dose of 2 mg/kg. Animals assigned to Group 3 (n=4) served as untreated controls. […] Diet consumption was also monitored on study days −7 until day 13 for the animals in Groups 2 and 3 only."}, "[1]": {"assay": "Example 4: capromorelin concentration in serum", "assay_type": "in vivo", "details": "Days 1 and 7, 3 mg/kg once or twice daily", "procedure": "A controlled, seven-day study was performed to assess the impact of different capromorelin-dosing regimens on the production of IGF-1, GH, and cortisol. The different capromorelin-dosing regimens were also assessed for the impact on food intake and changes in body mass.\n[…] were divided into one of three treatment groups, with one negative control group and two active treatment groups. Each of the three treatment groups included three males and three females. The first group received a placebo formulation (i.e., deionized water) twice per day, via oral gavage. The second group received a once-daily dose of the capromorelin composition at a concentration of 3 mg/kg, via oral gavage. The third group received a twice-daily dose of the capromorelin composition at a concentration of 3 mg/kg, via oral gavage.\nDuring the ten day study period, on an at least once-daily basis, each of the dogs was monitored for clinical observations, mortality, moribundity, body mass, acceptability/palatability, and food consumption. Serum samples were taken to measure capromorelin concentration, GH concentration, IGF-1 concentration, and cortisol concentration. Serum samples were taken on days 1, 2, 4, and 7 at −15 minutes (pre-dose), immediately prior to dosing (0 minutes) and 30, 45, 60, 90, 120, 240, 360, and/or 480 minutes post dosing. […]"}, "[2]": {"assay": "Example 1 seven-day dosing regimen study: food consumption and body weight", "assay_type": "in vivo, Beagle dogs", "procedure": "A controlled, seven-day study was performed to assess the impact of different capromorelin-dosing regimens on the production of insulin-like growth factor 1 (hereinafter “IGF-1”), growth hormone (hereinafter “GH”), and cortisol. The different capromorelin-dosing regimens were also assessed for the impact on food intake and changes in body mass.\nEighteen adult non-naïve Beagle dogs (nine males and nine females) were divided into one of three treatment groups. Each of the three treatment groups included three males and three females. Group A, which was the control group, was dosed twice per day, via oral gavage, with a vehicle (deionized water alone) and was used as a baseline data point for comparison against the active treatment regimens. Group B comprised an active treatment group that received two treatments per day, via oral gavage, with a capromorelin-containing composition with a concentration of 3 mg/kg capromorelin per treatment. Finally, Group C comprised an active treatment group that received one treatment per day, via oral gavage, with a capromorelin-containing composition with a concentration of 6 mg/kg capromorelin per treatment.\nDuring the ten day study period, on an at least once-daily basis, each of the dogs was monitored for clinical observations, mortality, morbidity, body mass, and food consumption. Serum samples were taken to measure capromorelin concentration, GH concentration, IGF-1 concentration, and cortisol concentration. Serum samples were taken on days 1, 2, 4, and 7 at −15 minutes (pre-dose), immediately prior to dosing (0 minutes) and 30, 45, 60, 90, 120, 240, 360, and/or 480 minutes post dosing. Additional blood samples were taken at 8 AM on Day 10 of the study to assess long-term impact of the active treatments."}, "[3]": {"details": "oral gavage, once-daily 6 mg/kg or twice-daily 3 mg/kg, 7 days"}}, "data": [{"smiles": "CN1N=C2CCN(C(=O)[C@@H](COCc3ccccc3)NC(=O)C(C)(C)N)C[C@@]2(Cc2ccccc2)C1=O.O=C(O)C(O)C(O)C(=O)O", "note": "[capromorelin]", "values": [{"measurement": "serum concentration of IGF-1 as a result of treatment", "setting": "IGF-1", "value": "increased in serum concentration of IGF-1"}, {"measurement": "serum capromorelin by eight hours after administration", "setting": "[1]", "value": "decreased to near undetectable levels"}, {"measurement": "time after dosing at which serum capromorelin begins rising", "setting": "[1]", "value": "approximately 0.5 h"}, {"measurement": "increase in weight over the seven day treatment period", "setting": "[2]; male dogs, once-daily 6 mg/kg or twice-daily 3 mg/kg oral gavage", "value": "4-5%"}, {"measurement": "food consumed relative to dogs receiving deionized water only", "setting": "[2]; [3]", "value": "consumed more food"}, {"measurement": "weight gain relative to dogs receiving deionized water only", "setting": "[2]; [3]", "value": "gained more weight"}]}]}
